In PMC9133036 (Nature Communications, 2022):
Substitutions are numbered along the chain they refer to. Values joined by “and” are separate entries in the source; they are usually repeats but may differ in a detail not shown here. Identical values can stand only once. Like-named read-outs stand apart in the source and are kept apart here.

What was measured:
Assay type in all cases: cell-based
[1] = molecular target: T1, human OX1R wild-type (Homo sapiens, UniProt O43613); test: IP accumulation assay, OX1R WT
T1 construct: FLAG; expressed in transfected cells; host or cells: HEK293
T1 sequence (O43613 1-425): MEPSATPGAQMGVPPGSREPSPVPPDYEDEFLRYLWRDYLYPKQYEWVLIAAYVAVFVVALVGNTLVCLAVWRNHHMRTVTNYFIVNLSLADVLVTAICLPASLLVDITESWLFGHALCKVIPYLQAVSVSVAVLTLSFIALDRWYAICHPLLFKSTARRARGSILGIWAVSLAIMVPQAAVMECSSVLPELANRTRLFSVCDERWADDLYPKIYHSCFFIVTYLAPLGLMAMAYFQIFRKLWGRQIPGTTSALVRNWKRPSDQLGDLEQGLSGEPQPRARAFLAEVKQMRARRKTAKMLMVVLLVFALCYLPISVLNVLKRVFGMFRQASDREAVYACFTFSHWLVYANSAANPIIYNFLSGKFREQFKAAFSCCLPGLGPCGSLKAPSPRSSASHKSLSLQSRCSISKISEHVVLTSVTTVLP
Source text: The IP assay was adapted from a prior precedent. HEK293 cells were maintained in DMEM-high glucose (Millipore Sigma) supplemented with 5% fetal bovine serum (Corning) and penicillin-streptomycin (Millipore Sigma). Receptor constructs used were the full-length wild-type (or mutant) human OX1R and OX2R sequences cloned into pCDNA3. To enhance the Emax in the IP assay, a plasmid encoding full-length human Gαq subunit[66] was co-transfected into HEK293 cells with plasmids encoding orexin receptor constructs using Lipofectamine 3000 (Thermo Fisher). 24 h after transfection, the cells were plated on poly-D-lysine coated (Millipore Sigma) tissue culture-treated 96 well white plates with clear bottoms (Perkin Elmer) at 30,000 cells per well in Inositol-free DMEM (MP Biomedicals) supplemented with 5% fetal bovine serum, 4 mM L-glutamine (Millipore Sigma), penicillin-streptomycin, and about 5 uCi (5 ul) per ml myo-[2-3H] inositol (Perkin Elmer). The following day, the media was replaced with agonists that were diluted in HBSS (Millipore Sigma) containing 10 mM lithium chloride (Millipore Sigma) and incubated at 37 °C for 45 min. Then agonists were removed and cells were lysed on ice for 30 min with 10 mM formic acid (Millipore Sigma). 1.25 mg of poly-lysine coated YSI SPA beads (Perkin Elmer) was added to each well. The plates were mixed on an orbital shaker for 30 min. The plates were read on a MicroBeta scintillation counter (Perkin Elmer) the following day. IP accumulation assays on different constructs were performed in n ≥ 3 independent experiments (each done in duplicate), where n is shown in Supplementary Table 2.

[2] = molecular target: T2, OX2R Q134A (Homo sapiens, UniProt O43614, Q134A); test: β-arrestin PathHunter assay, OX2R Q134A; design: expressed in transfected cells; host or cells: CHO-K1 stably expressing EA β-arrestin2; details: for EC50: β-arrestin recruitment
T2 sequence (O43614 1-444 Q134A): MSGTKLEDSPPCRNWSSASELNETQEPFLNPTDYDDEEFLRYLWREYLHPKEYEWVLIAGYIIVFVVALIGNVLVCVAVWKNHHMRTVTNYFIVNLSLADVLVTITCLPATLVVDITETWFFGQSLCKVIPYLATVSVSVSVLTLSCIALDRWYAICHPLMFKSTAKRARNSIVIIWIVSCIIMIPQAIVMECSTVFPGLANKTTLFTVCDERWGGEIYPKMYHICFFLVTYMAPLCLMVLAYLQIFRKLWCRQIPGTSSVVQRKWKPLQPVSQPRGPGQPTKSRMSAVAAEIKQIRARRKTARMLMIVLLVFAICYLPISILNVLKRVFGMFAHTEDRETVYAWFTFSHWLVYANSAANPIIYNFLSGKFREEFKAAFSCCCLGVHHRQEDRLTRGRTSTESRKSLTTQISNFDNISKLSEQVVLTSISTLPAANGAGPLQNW
Protocol: β-Arrestin recruitment activity was measured by using the PathHunter system (DiscoveRX) according to the manufacturer’s instruction. Receptor constructs used were the full-length wild-type (or mutant) human OX2R sequences cloned into pCMV-ProLink (DiscoveRX). CHO-K1 cells stably expressing EA β-arrestin2 (DiscoveRX) were plated on 384 well white plates (Thermo Fisher) at 4000 cells/well in HamF12 (Wako Pure Chemical Industries) supplemented with 10% fetal bovine serum (Corning) and penicillin-streptomycin (Wako Pure Chemical Industries) and incubated overnight at 37 °C under 5% CO2. Cells were transfected with plasmids encoding wild type or each mutant ProLink-tagged human OX2R using FuGENE HD (Promega). […] Detection reagent was added and incubated for 1 h at room temperature. Luminescent signal was detected using an EnVision plate reader (PerkinElmer). β-arrestin assays on different constructs were performed in two or three independent experiments (each done in quadruplicate). Dose response curves (shown in Supplementary Fig. 8) were fitted to the three-parameter model ‘log(agonist) vs response’ in GraphPad Prism to determine pEC50 values.

[3] = molecular target: T3, human OX2R wild type (Homo sapiens, UniProt O43614); test: β-arrestin PathHunter assay, OX2R WT; design: expressed in transfected cells; host or cells: CHO-K1 stably expressing EA β-arrestin2; details: listed as OxB
T3 sequence (O43614 1-444): T2 sequence (O43614 1-444 Q134A) with A134Q
Protocol: β-Arrestin recruitment activity was measured by using the PathHunter system (DiscoveRX) according to the manufacturer’s instruction. Receptor constructs used were the full-length wild-type (or mutant) human OX2R sequences cloned into pCMV-ProLink (DiscoveRX). […] Cells were transfected with plasmids encoding wild type or each mutant ProLink-tagged human OX2R using FuGENE HD (Promega). […] Detection reagent was added and incubated for 1 h at room temperature. Luminescent signal was detected using an EnVision plate reader (PerkinElmer). β-arrestin assays on different constructs were performed in two or three independent experiments (each done in quadruplicate). Dose response curves (shown in Supplementary Fig. 8) were fitted to the three-parameter model ‘log(agonist) vs response’ in GraphPad Prism to determine pEC50 values.

activation at 100 µM ([1]; 0.75 h, TAK-925 conc (log, M) -4.00, normalized to S103T/A127T Emax) [%] | activation at 33.1 µM ([1]; 0.75 h, TAK-925 conc (log, M) -4.48) [%] | activation at 11.2 µM ([1]; 0.75 h, TAK-925 conc (log, M) -4.95) [%] | activation at 3.72 µM ([1]; 0.75 h, TAK-925 conc (log, M) -5.43) [%] | activation at 1.23 µM ([1]; 0.75 h, TAK-925 conc (log, M) -5.91) [%] | activation at 0.0457 µM ([1]; 0.75 h, TAK-925 conc (log, M) -7.34) [%] | pEC50 ([1]; IP accumulation) | EC50 ([1]; IP accumulation, non-saturating) [µM] | β-arrestin recruitment, change on mutation of Gln134 [2] | EC50 ([2]; pEC50 ± SEM, read-out: pEC50 (converted)) [µM] | EC50 ([2]; read-out: EC50) [µM] | Molecule | beta-arrestin recruitment fold change ([3]; OxB concentration -6.00 (log, M)) | beta-arrestin recruitment fold change ([3]; OxB concentration -6.52 (log, M)) | beta-arrestin recruitment fold change ([3]; OxB concentration -7.00 (log, M)) | beta-arrestin recruitment fold change ([3]; OxB concentration -7.52 (log, M)) | beta-arrestin recruitment fold change ([3]; OxB concentration -8.00 (log, M)) | beta-arrestin recruitment fold change ([3]; OxB concentration -8.52 (log, M)) | beta-arrestin recruitment fold change ([3]; OxB concentration -9.00 (log, M)) | beta-arrestin recruitment fold change ([3]; OxB concentration -10.00 (log, M))
59 | 40.3 | 23.1 | 13.6 | 8.76 | 7.24 | not saturating | > 100 | large reductions | > 30.2 | > 30 | COC(=O)N1CCC[C@H](NS(C)(=O)=O)[C@@H]1CO[C@H]1CC[C@@H](c2ccccc2)CC1 [TAK-925, methyl (2R,3S)−3-[(methylsulfonyl)amino]−2-{[(cis−4-phenylcyclohexyl)oxy]methyl}piperidine-1-carboxylate] | – | – | – | – | – | – | – | –
– | – | – | – | – | – | – | – | – | – | – | orexin B | 25.382 fold and 21.415 fold and 21.711 fold and 14.809 fold | 25.694 fold and 21.531 fold and 23.664 fold and 15.569 fold | 27.509 fold and 22.224 fold and 24.930 fold and 18.908 fold | 19.878 fold and 18.553 fold and 19.712 fold and 17.639 fold | 16.213 fold and 13.992 fold and 16.040 fold and 14.141 fold | 11.509 fold and 10.398 fold and 11.514 fold and 8.169 fold | 4.809 fold and 5.512 fold and 5.245 fold and 5.387 fold | 1.518 fold and 1.553 fold and 1.554 fold and 2.080 fold
